We go through 6 compounds from US20150111852A1, “1-Di(sec-butyl)-phosphinoyl-pentane (dapa-2-5) as a topical agent” (priority 2013, published 2015).

Structures are written as SMILES. Values after ≈ are worked out from the molar mass of the structure shown.

The test system of series [1] is 0.1 N HCl-induced swallowing, pharyngolaryngeal region. Kind of series: Acid-induced swallowing movements in the anesthetized rat. The class given is in vivo. The conditions noted are these: for Relative Potency (suppression of swallowing): DAPA-2-5 = 1.0. From the text:
A principal endogenous irritant in the linings of the upper aerodigestive tract is hydrochloric acid. Acid stimulations of the mucosa of the pharynx will elicit reflex swallowing. […] In a rat animal model, solutions of organic acids such as acetic acid and citric acid were effective in eliciting swallowing [Kajii et al., Sour taste stimulation facilitates reflex swallowing from the pharynx and larynx in the rat Physiology & Behavior 77: 321-325, 2002]. In the present discovery, the method for measuring sensory responses to acid was adapted for screening agents that might suppress the sensitivity to hydrochloric acid. Agents that suppress the acid challenge may then have utility in relieving the discomfort of heartburn.
Experiments were conducted at the Pavlov Institute of Physiology, St. Petersburg, Russia. Adult male Wistar rats, weighing 200 to 400 g, were obtained from the Roppolovo Vivarium. All rats were anesthetized with sodium pentobarbital/urethane and fixed in the supine position. Body temperature was maintained at 37.0° C. with a heating pad. A midline incision was made in the ventral surface of the neck and the trachea was cannulated. A guide tube (polyethylene, diameter 2.2 mm) was fixed at the midline of the hard palate and an internal infusion tube (polyethylene, diameter 0.9 mm) was then placed flush to the end of soft palate. This procedure allows stimulation of the pharyngolaryngeal region with liquids, with minimum mechanical perturbation. An esophageal tube was placed at the thoracic level to drain solutions after infusion. The infused solution was applied to the pharyngolaryngeal region at a flow rate of 1.5 pUs for 20 sec using an infusion pump, giving a total unit volume of approximately 30 μL. Stimulations were applied at intervals of 2 to 3 min, with intervals allowed for rinsing and cleansing with suction. The solutions infused were distilled water, normal saline, 0.1 N hydrochloric acid, or test compounds dissolved in normal saline. A paired unipolar electrode was inserted into unilateral mylohyoid muscle to record electromyogram (EMG) activity and the signal processed for later analysis. Swallowing movements was identified as the EMG activity and could also be visualized as laryngeal movement. The number of swallows in a fixed interval was used as the endpoint.
The test procedures were similar to those described earlier (see, e.g., Kajii et al., 2002). Also, the drainage of the esophagus was at the thoracic level to avoid mechanical disturbance of the pharynx. The infusion rate of solutions was 1.5 μL/sec for 15 to 18 sec.
The response to 0.1 N HCl infusion (30 μL over an approximately 18 second period) was highly reproducible. On average there were 36±4 swallowing movements within one min (N=7 rats). This response could be elicited in the same rat over a 2 hour period with a rest period or saline infusions at 10 min intervals.
The up-down method of Dixon [Efficient analysis of experimental observations. Ann. Rev. […] The EC50 (N=8) for DAPA-2-5 was estimated to be 0.09 mg/mL.

Series [2] concerns the target T1, TRPA1 channels (human TRPA1 gene expressed in CHO cells) (Homo sapiens, UniProt O75762).
T1 construct: expressed in transfected cells; host or cells: CHO cells
Put plainly: TRPA1 agonist assay. The class given is cell-based. The conditions noted are these: maximum tested concentrations of 100 μM. As for the experimental part: To examine the specificity of the test compounds, further studies were conducted on TRPV1 channels (human TRPV1 gene expressed in HEK293 cells) and TRPA1 channels (human TRPA1 gene expressed in CHO cells). The test cells were Chinese Hamster Ovary (CHO) cells or Human Embyronic Kidney (HEK) 293 cells transfected with human TRPV1 or TRPA1 cDNAs.

In series [3] the test system is mouth and throat. Put plainly: Sensory activity of ODT-C on volunteers (double-blind, modified ASHRAE scale). The class given is in vivo, human. The conditions noted are these: for ODT-C test results (sensation and taste in words) / duration of cooling effect: 1.2 to 1.5 mg per ODT; for ODT-C test results (sensation and taste in words): 4 volunteers; for quality of heat abstraction sensation (peak intensity) / duration of cooling effect: ODT-C; for ASHRAE equivalent: peak heat abstraction sensation, modified ASHRAE scale neutral [0] to icy cold [-4]. How it is done:
ODT-C. More experiments were conducted to find a smaller tablet, in the range of 40 to 60 mg, with a disintegration of <10 sec. These paraemters might achieve a better pharmacological effect. ODT-B was 100 mg in size and disintegrated in <20 sec. […] For example, to 1.5 g of DAPA-2-5 is added 1.5 g of absolute ethanol, followed by 2.0 g of Neusilin US2. The mixture is shaken or mixed in a Speedmixer at 500 rpm for 1 min. The sample is placed under a heat source and about 2 hr later, the sample size is re-weighed with the expectation that the ethanol has been evaporated and the sample now weights 3.5 g. This powder is free-flowing. • b. a sample of maltitol powder is prepared (Maltisorb® P200 from Roquette). • c. a sample of Prosolv® EasyTab is prepared (JRS Pharma, Rosenburg, Germany). • d. a blend of a. [2.80 g], b. [15.73 g] and c. [31.46 g] is prepared to make 1000 ODT tablets, each weighing 50 mg and containing 1.2 mg of DAPA-2-5. • e. the blend is first shaken by hand, then placed for 2 min in a SpeedMixer at 500 rpm. The blend is poured into the funnel of a New Single Punch Tablet Press Pill Making Machine Maker TDP-1-5 [available from Amazon.com] and the extruded tablets are collected.
ODT-C, described in Study 2, were tested for sensory properties on 4 volunteers, with at least 3 trials per compound and at 1.2 to 1.5 mg per ODT. The ODT was placed on the mid-line posterior dorsal surface of the tongue and sensory effects recorded for 30 min on a standardized form […]. The ODT were coded and administered on a double-blind basis. A modified ASHRAE scale of neutral, slightly cool [-1], cool [-2], cold [-3], and icy cold [-4] was used to rank the peak heat abstraction sensations in the mouth and throat. Other perceived effects, e.g. taste and duration, were also noted.

In series [4] the test system is rat skin. Put plainly: Irritant activity on shaved abdominal rat skin. More on the design: key to Redness after 20 μL applied topically to skin (scale of 0 to +++): the presence of redness (irritation) was graded on a scale of 0 to +++; the presence of redness (irritation) was graded on a scale of 0 to +++; the presence of redness (irritation) was graded on a scale of 0 to +++; the presence of redness (irritation) was graded on a scale of 0 to +++. The conditions noted are these: for Redness after 20 μL applied topically to skin (scale of 0 to +++): pure compound, 1 hour; for skin irritancy in words: undiluted form. It is filed as in vivo. How it is done: This hypothesis was tested by applying 20 μL of the pure compound onto the shaved abdominal skin of a pentobarbital-anesthetized rat. The test substance was enclosed in a circle of ˜1 cm diameter with a ring of cream. The test substance was applied with a micropipette, and after 1 hour the area was wiped with a cotton pad and the presence of redness (irritation) was graded on a scale of 0 to +++.

T1 sequence (O75762 whole entry): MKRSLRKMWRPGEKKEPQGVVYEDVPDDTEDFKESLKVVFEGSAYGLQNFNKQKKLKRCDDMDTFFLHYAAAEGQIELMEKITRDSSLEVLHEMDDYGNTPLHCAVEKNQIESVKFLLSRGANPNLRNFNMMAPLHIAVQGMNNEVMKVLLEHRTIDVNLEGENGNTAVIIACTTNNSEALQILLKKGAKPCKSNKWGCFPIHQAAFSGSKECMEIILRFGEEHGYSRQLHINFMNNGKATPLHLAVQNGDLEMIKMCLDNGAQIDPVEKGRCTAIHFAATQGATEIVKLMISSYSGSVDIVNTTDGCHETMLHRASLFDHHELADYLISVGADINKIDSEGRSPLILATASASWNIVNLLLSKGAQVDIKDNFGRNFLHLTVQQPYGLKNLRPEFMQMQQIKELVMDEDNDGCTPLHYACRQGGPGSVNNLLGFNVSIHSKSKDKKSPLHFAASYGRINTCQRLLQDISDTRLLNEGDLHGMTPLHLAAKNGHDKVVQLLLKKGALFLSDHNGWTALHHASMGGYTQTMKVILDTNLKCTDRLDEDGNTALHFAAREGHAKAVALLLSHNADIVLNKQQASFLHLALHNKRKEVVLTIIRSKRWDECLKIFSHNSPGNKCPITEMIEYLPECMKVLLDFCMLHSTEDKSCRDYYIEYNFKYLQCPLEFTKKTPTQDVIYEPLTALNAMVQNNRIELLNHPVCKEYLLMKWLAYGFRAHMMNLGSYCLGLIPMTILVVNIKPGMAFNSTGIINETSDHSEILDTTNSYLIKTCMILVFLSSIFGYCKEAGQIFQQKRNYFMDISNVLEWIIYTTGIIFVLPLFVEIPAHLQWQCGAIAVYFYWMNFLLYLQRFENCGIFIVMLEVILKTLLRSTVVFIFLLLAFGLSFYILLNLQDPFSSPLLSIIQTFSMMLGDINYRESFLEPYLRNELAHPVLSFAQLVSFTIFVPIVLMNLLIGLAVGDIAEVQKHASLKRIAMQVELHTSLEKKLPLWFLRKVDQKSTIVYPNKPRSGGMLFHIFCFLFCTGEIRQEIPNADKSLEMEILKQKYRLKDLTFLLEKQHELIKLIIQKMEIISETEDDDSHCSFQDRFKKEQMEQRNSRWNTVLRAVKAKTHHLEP

`CCCCCCP(=O)(C(C)CC)C(C)CC` (stereo not drawn) [DAPA-2-6, 1-Di(sec-butyl) phosphinoyl-hexane]: the “Relative Potency (suppression of swallowing)” value (“Relative Potency” for short) in series [1] was determined as 0.05. The “inhibitory activity for swallowing relative to DAPA-2-5” value in series [1] (rat, in vivo) was 5%. Besides, the “agonist activity on TRPA1 channels” value in series [2] is “did not exhibit any agonist activity”. Besides, in series [3], the “ODT-C test results (sensation and taste in words)” value (shortened to “ODT-C test results”) is “intense sensation of icy cold, but has unpleasant”; the “quality of heat abstraction sensation (peak intensity)” value (from here on “quality of heat abstraction sensation”) was “cold and icy cold which was painful to the back of the throat”; the “duration of cooling effect” value is “taste on the tongue, long-lasting >15 min”; the ASHRAE equivalent was −3.2. Besides, in series [4], the “Redness after 20 μL applied topically to skin (scale of 0 to +++)” value (“Redness after 20 μL applied topically” below) is on record as “+” and the “skin irritancy in words” value was “is a skin irritant”.
Regarding `CCCCCP(=O)(C(C)CC)C(C)CC` (stereo not drawn) [DAPA-2-5, 1-Di(sec-butyl)-phosphinoyl-pentane], in series [1] (DAPA-2-5 0.4 mg/mL, 10 min after, 8 min after), the “swallows after second acid challenge” value came out at 9 swallows per min. In series [1] (DAPA-2-5 0.4 mg/mL, 15 min after, after saline rinse, 22 min after), the “swallows after third acid challenge” value was 27 swallows/min. For the same compound, in series [1] (DAPA-2-5 0.4 mg/mL, challenge 5 min later, within 3 min), the “swallows after first acid challenge” value worked out at 3 swallows/min. Besides, the “Relative Potency” value in series [1] is recorded as 1.0. Also, the EC50 in series [1] (Rattus norvegicus, up-down method, 50% reduction of swallowing frequency, N=4 to 8, read-out: EC50 ± S.E.M. (mg/mL), suppression of acid-induced swallowing) was determined as 0.09 mg/mL (≈ 387 µM). For the same compound, in series [1] (rat, in vivo), the “Comments (duration of inhibition)” value is on record as approximately 15 min and the “Comments (reversibility of inhibition)” value was “reversible;”. In addition, the “agonist activity on TRPA1 channels” value in series [2] is “did not exhibit any agonist activity”. In series [3], the “ODT-C test results” value is listed as “pleasant dynamic cool”; the “quality of heat abstraction sensation” value is “refreshing coolness and cold”; the “duration of cooling effect” value is reported as 12 to 15 min; the ASHRAE equivalent is reported as −2.7. For the same compound, in series [4], the “Redness after 20 μL applied topically” value is recorded as 0 and the “skin irritancy in words” value was “minimal or no pro-inflammatory actions on the skin”.
As to `CCCCCCP(=O)(C(C)C)C(C)C` [DAPA-1-6, 1-Di(isopropyl)-phosphinoyl-hexane], in series [3], the “ODT-C test results” value is listed as “intense sensation of icy cold, but has unpleasant”; the “quality of heat abstraction sensation” value was “cold and icy cold which was painful to the back of the throat”; the “duration of cooling effect” value is “lasting >10 min”; the ASHRAE equivalent is reported as −3.5.
Take `CCCCCCCP(=O)(C(C)C)C(C)C` [DAPA-1-7, 1-Di(isopropyl)-phosphinoyl-heptane]: in series [1], the “Relative Potency” value is on record as 0.11. In series [3], the “ODT-C test results” value is on record as “intense sensation of icy cold, but has unpleasant”; the “quality of heat abstraction sensation” value was “cold and icy cold which was painful to the back of the throat”; the “duration of cooling effect” value is listed as “taste on the tongue: test dose of 1 to 2 mg, >15 min”; the ASHRAE equivalent is recorded as −3.5.
On to `CCCCCCCP(=O)(C(C)CC)C(C)CC` (stereo not drawn) [DAPA-2-7, 1-Di(sec-butyl) phosphinoyl-heptane], for which the “Relative Potency” value in series [1] stood at 0.45. Besides, in series [1] (rat, in vivo), the “Comments (duration of inhibition)” value is recorded as >~30 min and the “Comments (reversibility of inhibition)” value was “long-lasting;”. The “agonist activity on TRPA1 channels” value in series [2] is “did not exhibit any agonist activity”. Also, in series [3], the “ODT-C test results” value is “intense sensation of icy cold, but has unpleasant”; the “quality of heat abstraction sensation” value is “cold and icy cold which was painful to the back of the throat”; the “duration of cooling effect” value is “taste on the tongue, long-lasting >15 min”; the ASHRAE equivalent is recorded as −3.5. Further, in series [4], the “Redness after 20 μL applied topically” value is listed as “++” and the “skin irritancy in words” value is “is a skin irritant”.
As to `CCCCCCCCP(=O)(C(C)CC)C(C)CC` (stereo not drawn) [DAPA-2-8, 1-Di(sec-butyl) phosphinoyl-octane], the “Relative Potency” value in series [1] is recorded as 0.16. In series [3], the “ODT-C test results” value is listed as “strong unpleasant taste”; the ASHRAE equivalent is −2.7.
